According to patent US20180084779A1, “PLANT DISEASE CONTROL AGENT AND USE THEREOF” (NIHON NOHYAKU CO., LTD., priority 2015, published 2018):

Experiments:
[1] = tested on: Septoria tritici, KUK-1-21 Strain; assay: Test for wheat leaf blotch, fluoroimide and/or DMI agent sprayed on wheat pots, lesion area index 17 days after inoculation; format: in vivo; conditions: wheat, 17 days after inoculation
Protocol: (§1) Test for Wheat Leaf Blotch (Septoria tritici, KUK-1-21 Strain):
(§2) Agrochemical liquids containing a predetermined concentration of fluoroimide and/or a predetermined concentration of each DMI agent were applied to wheat in a predetermined amount with a spray gun. After air drying, a suspension of fungus spore of Septoria tritici adjusted to 1.0×10^7 spores/ml was inoculated by spraying. After that, the wheat pots were kept in a growth chamber under a light condition of at 15° C. 100% RH to encourage the development of the disease. Seventeen days after the inoculation, the lesion area index (0-10) was determined for the evaluation of the control effect.
(§3) Control effect (%)=[(Disease index of no treatment area−Disease index of treatment area)/Disease index of no treatment area]×100 [Formula 1]
(§4) The expected effect (expected value E) by using an active ingredient in combination with each of other active ingredients in the above tests was determined by the following Colby formula (see COLBY, S. R., Weeds 15: 20-22 (1967)).
(§5) E(Expected effect)=(X+Y)−(X×Y/100) [Formula 2]
X=controlling effect of fungicide A alone
Y=controlling effect of fungicide B alone

[2] = tested on: Septoria tritici, KUK-1-21 Strain; assay: Test for wheat leaf blotch, fluoroimide and/or SDHI agent sprayed on wheat pots, lesion area index 21 days after inoculation; format: in vivo; conditions: for Controlling Effect as single agent: wheat, 21 days after inoculation; for Control effect Combination with fluoroimide / Control effect SDHI alone: 21 days; for Control effect SDHI alone: fluoroimide 0 ppm
Protocol: as §3, §4, §5, §1
as §2, with “SDHI” for “DMI”, “Twenty-one” for “Seventeen”, “set and” for “determined for”, “controlling effects and expected values are examined in” for “evaluation of”, “same manner as Example 1.” for “control effect.”

[3] = SDHI agent 1 ppm + fluoroimide 50 ppm
[4] = SDHI agent 1 ppm + fluoroimide 100 ppm
[5] = SDHI agent 3 ppm + fluoroimide 50 ppm
[6] = SDHI agent 3 ppm + fluoroimide 100 ppm
[7] = SDHI agent 10 ppm + fluoroimide 50 ppm
[8] = SDHI agent 10 ppm + fluoroimide 100 ppm

O=C1C(Cl)=C(Cl)C(=O)N1c1ccc(F)cc1 [fluoroimide]
Controlling Effect as single agent ([1]; fluoroimide alone 50 ppm): 25%
Controlling Effect as single agent ([1]; fluoroimide alone 100 ppm): 50%
Controlling Effect as single agent ([2]; fluoroimide alone 50 ppm): 5%
Controlling Effect as single agent ([2]; fluoroimide alone 100 ppm): 25%

Cn1cc(C(=O)Nc2ccc(F)cc2-c2ccc(Cl)c(Cl)c2)c(C(F)F)n1 [bixafen]
Control effect Expected value (Colby) [2, 3]: 76%
Control effect Combination with fluoroimide [2, 3]: 95%
Control effect Expected value (Colby) [2, 4]: 81%
Control effect Combination with fluoroimide [2, 4]: 85%
Control effect SDHI alone ([2]; SDHI agent 1 ppm): 75%
Control effect Expected value (Colby) [2, 5]: 86%
Control effect Combination with fluoroimide [2, 5]: 100%
Control effect Expected value (Colby) [2, 6]: 89%
Control effect Combination with fluoroimide [2, 6]: 90%
Control effect SDHI alone ([2]; SDHI agent 3 ppm): 85%
Control effect Expected value (Colby) [2, 7]: 100%
Control effect Combination with fluoroimide [2, 7]: 100%
Control effect Expected value (Colby) [2, 8]: 100%
Control effect Combination with fluoroimide [2, 8]: 100%
Control effect SDHI alone ([2]; SDHI agent 10 ppm): 100%
